Data on one compound can be found in patent US11225469B2, “Inhibitors of phosphoglycerate dehydrogenase (PHGDH) and uses thereof” (Whitehead Institute for Biomedical Research, priority 2015, dated 2022).

The IC50 is the concentration that inhibits the measured activity by half.

In test [1] the test system is MDA-MB-231 cells over-expressing PHGDH. Briefly: Intracellular serine in MDA-MB-231 cells expressing PHGDH, medium lacking serine and glycine (LC-MS). In kind it is cell-based, human. The conditions noted are these: media lacking serine and glycine. The protocol:
To examine target engagement of PHGDH inhibitors in cells, MDA-MB-231 cells that lack detectable expression of PHGDH and MDA-MB-231 cells that stably express full-length human PHGDH (MDA-MB-231-PHGDH) were treated with PHGDH inhibitors in RPMI lacking serine and glycine. A MDA-MB-231 cell line was constructed which expresses PHGDH for comparison against the MDA-MB-231 empty vector line. MDA-MB-231 breast cancer cells were infected with PHGDH-expressing retrovirus.
MDA-MB-231 cells are incapable of synthesizing serine, but the addition of PHGDH permits these cells to synthesize serine. […] Concentrations of serine were determined by comparison with signals of internal standards and calibration curves. PHGDH inhibition reduces steady-state levels of intracellular serine in MDA-MB-231 cells over-expressing PHGDH. Studies were also performed in MDA-MB-468 cells, which over-express PHGDH and are PHGDH-dependent.
Cells were evenly seeded at 400,000 cells per well of a 6-well plate and allowed to attach for 24 hours. Prior to all labeling experiments, cells were pretreated with 10 μM compound or an equivalent volume of DMSO in RPMI for 1 hour. For steady-state metabolite concentrations, cells were washed with PBS prior to pretreatment and treatment in RPMI lacking serine and glycine. For labeling experiments, U-^13C-glucose, U-^13C-serine, or U-^13C-glycine replaced the corresponding unlabeled RPMI component. Cells were washed in 4° C. […] Triplicate identically seeded wells were trypsinzed and analyzed with a Multisizer Coulter Counter (Beckman Coulter) to obtain cell counts and total cell volumes for normalization.
Dried metabolites were resuspended in 100 μL water, centrifuged at 13,000×g at 4° C. for 10 minutes, and the supernatant recovered for analysis. […] Metabolites were monitored using a polarity-switching full-scan method and identified by accurate mass (±20 ppm) and retention time within 15 seconds of a previously run pure standard. […]

The test system of test [2] is MDA-MB-468 orthotopic xenografts. Briefly: MDA-MB-468 orthotopic xenografts. In kind it is in vivo, mouse. The conditions noted are these: 40 mg/kg daily, IP. The protocol: Female NOD.CB17-Prkdc^scid/J mice, 6-8 weeks old, were obtained from Jackson Laboratories. All animals were provided with food ad libitum for the duration for the duration of the experiment. The animals were allocated randomly for induction with MDA-MB-231 or MDA-MB-468 tumors and tumor group was assigned blindly. 500,000 MDA-MB-231 or MDA-MB-468 cells were injected into the 4th mammary fat pad of each mouse. After 30 days, the tumors were palpable, and the mice were pooled by tumor type and divided randomly to two groups, which were assigned blindly to vehicle or NCT-503 treatment. […] Caliper measurements were obtained twice weekly and tumor volumes were calculated with the modified ellipsoid formula: volume=0.5×width^2×length.
For quantitation of necrotic regions, fixed tumors were embedded and sections stained with hematoxylin and eosin. Slides were scanned with a Leica Aperio AT2 brightfield scanner. Tumor and necrotic cross-sectional regions were manually delineated and measured using Leica ImageScope software to calculate the percentage of necrosis.

In test [3] the target is GPD1 (Homo sapiens (Human), UniProt P21695). In words: Counter-screen against GPD1. In kind it is biochemical. The conditions noted are these: Table E11. The protocol: GAPDH substrate buffer contained 210 mM Tris pH 7.4, 2.5 mM NaH2PO4 pH 7.4, 2 mM DL-Glyceraldehyde 3-phosphate, 1.75 mM MgCl2, 0.01 mM NAD+, 0.11 mM resazurin, 0.2 mg/mL BSA, and 0.01% Tween-20. GAPDH enzyme buffer contained 50 mM Tris pH 7.4, 100 mM NaCl, 0.02 mM TCEP, 0.01 mM EDTA, 0.1 mg/mL BSA, 0.42 mg/mL diaphorase, and 2.5 nM GAPDH. The GAPDH, GPD1, and GPD1L assays were run in 384-well plates using the same protocol and readout as the PHGDH assay. […] GPD1 enzyme buffer contained 50 mM Tris pH 7.4, 100 mM NaCl, 0.08 mM TCEP, 0.4 mg/mL BSA, 0.03 μM EDTA, and 0.8 nM GPD1. 70 μL of substrate buffer were mixed with 10 μL enzyme buffer. GPD1L substrate buffer contained 200 mM Tris pH 7.4, 0.05 mM sn-G3-P, 2 mM MgCl2, 0.04 mM NAD+, 0.11 mM resazurin, 0.1 mg/mL BSA, and 0.02% Tween-20. GPD1L enzyme buffer contained 50 mM Tris pH 7.4, 100 mM NaCl, 0.02 mM TCEP, 0.42 mg/mL diaphorase, 0.1 mg/mL BSA, 0.008 μM EDTA, and 16 nM GPD1L. 40 μL of substrate buffer were mixed with 40 μL of enzyme buffer.
The GAPDH and GPD1L assays were read using the same protocol as the PHGDH assay. The GPD1 assay was read using loss of NADH fluorescence (λex=340 nm and λem=460 nm).
A general note: A counterscreen serves to expose hits that act by an unwanted route or on another target.

Test [4] concerns the target PHGDH (Homo sapiens (Human), UniProt O43175). In words: Differential scanning fluorimetry. The test is classed as binding. The protocol:
Destabilization has been previously observed in the specific binding of small molecules to their protein targets (see, e.g., Hamiaux, C. et al. “DAD2 is an α/β hydrolase likely to be involved in the perception of the plant branching hormone, strigolactone.” Curr Biol 22, 2032-2036 (2012)).
Differential scanning fluorimetry assays were carried out in 20 mM TEA pH 8, 100 mM NaCl, 1× SYPRO Orange (Sigma), 2 μM PHGDH in a volume of 10 μL. Unfolding was monitored using a LightCycler 480 II real-time PCR instrument (λex=465 nm and λem=580 nm) over a linear 20 to 85° C. gradient. Plots of the first derivative of fluorescence vs. temperature were generated in LightCycler software.
On the technique in general: In DSF a fluorescence change marks the thermal transition of the protein.

Some results are limits rather than exact numbers.

PHGDH, sequence (O43175 whole entry): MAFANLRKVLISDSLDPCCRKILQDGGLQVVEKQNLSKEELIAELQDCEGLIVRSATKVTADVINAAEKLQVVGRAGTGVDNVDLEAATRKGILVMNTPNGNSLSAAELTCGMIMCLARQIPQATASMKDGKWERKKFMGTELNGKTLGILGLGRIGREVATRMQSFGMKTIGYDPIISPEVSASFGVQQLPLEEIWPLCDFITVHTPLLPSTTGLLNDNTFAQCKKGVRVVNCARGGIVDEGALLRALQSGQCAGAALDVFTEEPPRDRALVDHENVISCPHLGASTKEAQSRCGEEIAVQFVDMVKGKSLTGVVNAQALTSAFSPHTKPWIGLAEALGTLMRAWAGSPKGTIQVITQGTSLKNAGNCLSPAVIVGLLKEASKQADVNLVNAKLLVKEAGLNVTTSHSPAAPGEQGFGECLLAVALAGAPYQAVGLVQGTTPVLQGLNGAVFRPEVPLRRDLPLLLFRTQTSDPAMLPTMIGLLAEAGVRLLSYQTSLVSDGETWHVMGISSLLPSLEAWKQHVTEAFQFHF
GPD1, sequence (P21695 whole entry): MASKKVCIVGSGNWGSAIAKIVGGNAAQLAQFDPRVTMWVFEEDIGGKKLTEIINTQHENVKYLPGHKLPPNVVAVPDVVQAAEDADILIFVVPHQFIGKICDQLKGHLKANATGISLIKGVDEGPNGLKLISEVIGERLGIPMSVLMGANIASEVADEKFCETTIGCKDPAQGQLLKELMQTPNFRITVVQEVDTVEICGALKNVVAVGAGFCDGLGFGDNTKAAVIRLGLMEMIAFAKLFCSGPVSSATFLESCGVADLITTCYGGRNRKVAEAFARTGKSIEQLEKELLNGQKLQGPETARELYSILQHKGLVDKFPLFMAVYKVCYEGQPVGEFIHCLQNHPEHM

With `Cc1cc(C)nc(NC(=S)N2CCN(Cc3ccc(C(F)(F)F)cc3)CC2)c1` [Compound 267, N-(4,6-dimethylpyridin-2-yl)-4-(4-(trifluoromethyl)benzyl)piperazine-1-carbothioamide], the intracellular serine levels entry in test [1] is listed as “reduced”. For the same compound, in test [2], the fraction of necrosis entry is “increases the fraction of necrosis”; the “growth and weight of xenografts” value was “reduced the growth and weight”. In test [3], the IC50 was at least 100 µM. Also, the “Tm of PHGDH” value in test [4] is on record as “decreased”.
